Where two headings read alike, the source gives them in different places.
Experiments:
Avi-tagged FL MALT-1 = Avi-tagged FL MALT-1 (Homo sapiens (Human), UniProt Q9UDY8); experiment: MALT-1 Fluorogenic Peptide Cleavage Assay (MALT1 inhibition assay); assay type: biochemical; conditions: Ac-LRSR-AMC peptide substrate, 30 min pre-incubation, 90 min reaction at room temperature
How it was run: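 Full-length Avi-tagged human MALT-1 (40 nM working stock) pre-incubated 30 min at RT with compound in 25 mM HEPES pH 6.89, 660 mM sodium citrate, 1 mM TCEP, […], 0.05% CHAPS, 2% DMSO. Ac-LRSR-AMC added at Km (50 μM working stock) or 10×Km (280 μM working stock); 90 min at RT, AMC fluorescence (ex 342/em 441 nm), IC50 from % inhibition curves.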

[1] = test system: NF-kB reporter in Jurkat cells; experiment: NF-kB reporter assay in Jurkat cells stimulated with aCD3/aCD28/PMA; assay type: cell-based; conditions: Homo sapiens, read-out: NF-kB Reporter Assay IC50
How it was run: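 Jurkat cells (25,000/well, serum-free RPMI) were pre-incubated 1 h at 37° C with serially diluted compound, then stimulated 4 h with aCD3/aCD28/PMA at final […]. NF-kB reporter activity was read by One-Glo luminescence; IC50 values reported.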

[2] = Jurkat cells, 1 hr compound pre-incubation, aCD3/aCD28/PMA stimulation 4 hr, One-Glo readout

Avi-tagged FL MALT-1, sequence (Q9UDY8 whole entry): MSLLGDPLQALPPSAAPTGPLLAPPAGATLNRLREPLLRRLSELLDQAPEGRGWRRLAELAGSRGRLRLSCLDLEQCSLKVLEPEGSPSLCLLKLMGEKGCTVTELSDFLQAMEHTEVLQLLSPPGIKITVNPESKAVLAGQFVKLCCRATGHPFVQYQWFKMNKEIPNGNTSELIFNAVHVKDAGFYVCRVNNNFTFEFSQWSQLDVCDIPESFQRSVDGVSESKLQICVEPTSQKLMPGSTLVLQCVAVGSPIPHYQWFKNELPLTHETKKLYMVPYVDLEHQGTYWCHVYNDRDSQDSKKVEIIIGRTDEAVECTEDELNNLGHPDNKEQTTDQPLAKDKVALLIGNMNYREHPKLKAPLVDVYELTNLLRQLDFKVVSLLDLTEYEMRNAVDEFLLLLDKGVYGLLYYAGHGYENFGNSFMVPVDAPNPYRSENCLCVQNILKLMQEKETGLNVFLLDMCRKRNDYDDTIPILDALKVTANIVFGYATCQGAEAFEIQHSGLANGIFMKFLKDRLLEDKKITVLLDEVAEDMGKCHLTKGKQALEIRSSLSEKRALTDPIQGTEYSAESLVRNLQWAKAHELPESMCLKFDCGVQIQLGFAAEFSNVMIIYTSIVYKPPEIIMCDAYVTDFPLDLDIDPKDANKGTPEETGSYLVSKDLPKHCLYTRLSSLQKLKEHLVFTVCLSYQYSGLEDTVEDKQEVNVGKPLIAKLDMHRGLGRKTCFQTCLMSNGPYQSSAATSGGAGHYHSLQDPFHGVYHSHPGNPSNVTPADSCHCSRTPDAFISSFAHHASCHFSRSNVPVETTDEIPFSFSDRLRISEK

Compound	IC50 (Avi-tagged FL MALT-1) [nM]	IC50 [1, 2] [nM]	IC50 ([1]; Jurkat) [nM]
COCC(F)(COC)c1ccnc(-n2cc(S(=O)(=O)Nc3cccc4cnn(C)c34)cn2)c1 [Compound I-289]	> 2500	> 2500	
CC[C@@](C)(O)c1ccnc(-n2cc(S(=O)(=O)Nc3cccc4cnn(C)c34)cn2)c1 [Compound I-295]	> 2500	< 400	
CCC(CC)(OC)c1ccnc(-n2cc(S(=O)(=O)Nc3cccc4cnn(C)c34)cn2)c1 [Compound I-296]	> 2500	< 400	
CCC(CC)(OC)c1ccnc(-n2cc(S(=O)(=O)Nc3c(OC)ccc4cnn(C)c34)cn2)c1 [Compound I-299, N-(6-Methoxy-1-Methyl-1H-Indazol-7-yl)-1-(4-(3-Methoxypentan-3-yl)Pyridin-2-yl)-1H-Pyrazole-4-Sulfonamide]	≤ 400	400 to 1000	
COC[C@](C)(OC)c1ccnc(-n2cc(S(=O)(=O)Nc3cccc4cnn(C)c34)cn2)c1 [Compound I-300]	> 2500	< 400	
C[C@@H]1COC(=O)N1c1ccnc(-n2cc(S(=O)(=O)Nc3cccc4cnn(C)c34)cn2)c1 [Compound I-302]	> 2500	< 400	
COC[C@H](O)c1ccnc(-n2cc(S(=O)(=O)Nc3cccc4cnn(C)c34)cn2)c1 [Compound I-305]	> 2500	400 to 1000	
CN1CCC[C@@H](n2cc(S(=O)(=O)Nc3cccc4cnn(C)c34)cn2)C1 [Compound I-308, N-(1-methylindazol-7-yl)-1-[(3R)-1-methylpiperidin-3-yl]pyrazole-4-sulfonamide]	> 2500	> 2500	
CN1CCC[C@H](n2cc(S(=O)(=O)Nc3cccc4cnn(C)c34)cn2)C1 [Compound I-309]	> 2500	> 2500	
CO[C@@]1(c2ccnc(-n3cc(S(=O)(=O)Nc4cccc5cnn(C)c45)cn3)c2)CCOC1 [Compound I-311]	> 2500	< 400	
CC[C@@H](OC)c1ccnc(-n2cc(S(=O)(=O)Nc3c(OC)ccc4cnn(C)c34)cn2)c1 [Compound I-318, N-(6-methoxy-1-methylindazol-7-yl)-1-{4-[(1R)-1-methoxypropyl]pyridin-2-yl}pyrazole-4-sulfonamide]	≤ 400	< 400	
C[C@H]1CN(c2ccnc(-n3cc(S(=O)(=O)Nc4cccc5cnn(C)c45)cn3)c2)C(=O)O1 [Compound I-319]	> 2500	< 400	
COc1ccc2cnn(C)c2c1NS(=O)(=O)c1cnn(-c2cc(CO)ccn2)c1 [Compound I-323, 1-[4-(hydroxymethyl)pyridin-2-yl]-N-(6-methoxy-1-methylindazol-7-yl)pyrazole-4-sulfonamide]	400 to 1000	< 400	
Cn1ncc2cccc(NS(=O)(=O)c3cnn(-c4cc(NC(C)(C)CO)ccn4)c3)c21 [Compound I-324, 1-(4-((1-Hydroxy-2-Methylpropan-2-yl)Amino)Pyridin-2-yl)-N-(1-Methyl-1H-Indazol-7-yl)-1H-Pyrazole-4-Sulfonamide]	> 2500	< 400	
CN1CC(c2ccnc(-n3cc(S(=O)(=O)Nc4cccc5cnn(C)c45)cn3)c2)C1 [Compound I-325]	> 2500	> 2500	
Cn1ncc2ccc(OC(F)(F)F)c(NS(=O)(=O)c3cnn(-c4cc(C(F)(F)F)ccn4)c3)c21 [Compound I-327, N-[1-methyl-6-(trifluoromethoxy)indazol-7-yl]-1-[4-(trifluoromethyl)pyridin-2-yl]pyrazole-4-sulfonamide]	≤ 400		< 400
Cn1ncc2cccc(NS(=O)(=O)c3cnn([C@@H]4CCCN(CC(F)(F)F)C4)c3)c21 [Compound I-328]	> 2500	1000 to 2500	
Cn1ncc2cccc(NS(=O)(=O)c3cnn([C@H]4CCCN(CC(F)(F)F)C4)c3)c21 [Compound I-329]	> 2500	1000 to 2500	
COC[C@](C)(F)c1ccnc(-n2cc(S(=O)(=O)Nc3cccc4cnn(C)c34)cn2)c1 [Compound I-330, (R)-1-(4-(2-fluoro-1-methoxypropan-2-yl)pyridin-2-yl)-N-(1-methyl-1H-indazol-7-yl)-1H-pyrazole-4-sulfonamide]	> 2500	< 400	
CN1C(=O)N(c2ccnc(-n3cc(S(=O)(=O)Nc4cccc5cnn(C)c45)cn3)c2)CC1(C)C [Compound I-332]	> 2500	< 400	
Cn1ncc2cccc(NS(=O)(=O)c3cnn(-c4cc([C@@]5(F)CCOC5)ccn4)c3)c21 [Compound I-334]	> 2500	< 400	
Cn1ncc2cccc(NS(=O)(=O)c3cnn(-c4cc([C@]5(F)CCOC5)ccn4)c3)c21 [Compound I-335]	> 2500	< 400	
[2H]C([2H])([2H])n1ncc2ccc(OC)c(N(C)S(=O)(=O)c3cnn(-c4cc(C(F)(F)F)ccn4)c3)c21 [Compound I-336, N-(6-methoxy-1-(methyl-d3)-1H-indazol-7-yl)-N-methyl-1-(4-(trifluoromethyl)pyridin-2-yl)-1H-pyrazole-4-sulfonamide]	≤ 400	< 400	
Cn1ncc2ccc(OC(F)(F)F)c(N(S(=O)(=O)c3cnn(-c4cc(C(F)(F)F)ccn4)c3)S(=O)(=O)c3cnn(-c4cc(C(F)(F)F)ccn4)c3)c21 [Compound I-337, N-[1-methyl-6-(trifluoromethoxy)indazol-7-yl]-1-[4-(trifluoromethyl)pyridin-2-yl]-N-{1-[4-(trifluoromethyl)pyridin-2-yl]pyrazol-4-ylsulfonyl}pyrazole-4-sulfonamide]	> 2500	> 2500	

Further lines, with some results ahead:

IC50 (Avi-tagged FL MALT-1) [nM]	IC50 [1, 2] [nM]	Compound	IC50 ([1]; Jurkat) [nM]
> 2500	< 400	Cn1ncc2cccc(NS(=O)(=O)c3cnn(-c4cc([C@]5(O)C[C@H](C)C5)ccn4)c3)c21 [Compound I-288, 1-(4-((1r,3r)-1-hydroxy-3-methyl-cyclobutyl)pyridin-2-yl)-N-(1-methyl-1H-indazol-7-yl)-1H-pyrazole-4-sulfonamide]	
> 2500	< 400	CC[C@](C)(O)c1ccnc(-n2cc(S(=O)(=O)Nc3cccc4cnn(C)c34)cn2)c1 [Compound I-294]	
> 2500	< 400	CCC(OC)c1ccnc(-n2cc(S(=O)(=O)Nc3cccc4cnn(C)c34)cn2)c1 (stereo not shown) [Compound I-297, 1-{4-[1-methoxypropyl]pyridin-2-yl}-N-(1-methylindazol-7-yl)pyrazole-4-sulfonamide]	
> 2500	< 400	CC[C@@H](OC)c1ccnc(-n2cc(S(=O)(=O)Nc3cccc4cnn(C)c34)cn2)c1 [Compound I-298]	
> 2500	< 400	COC[C@@](C)(OC)c1ccnc(-n2cc(S(=O)(=O)Nc3cccc4cnn(C)c34)cn2)c1 [Compound I-301]	
> 2500	< 400	C[C@H]1COC(=O)N1c1ccnc(-n2cc(S(=O)(=O)Nc3cccc4cnn(C)c34)cn2)c1 [Compound I-303]	
> 2500	400 to 1000	COC[C@@H](O)c1ccnc(-n2cc(S(=O)(=O)Nc3cccc4cnn(C)c34)cn2)c1 [Compound I-304]	
> 2500	< 400	CO[C@]1(c2ccnc(-n3cc(S(=O)(=O)Nc4cccc5cnn(C)c45)cn3)c2)CCOC1 [Compound I-306]	
> 2500	< 400	Cn1ncc2cccc(NS(=O)(=O)c3cnn(-c4cc(C(C)(C)CO)ccn4)c3)c21 [Compound I-307, 1-(4-(1-hydroxy-2-methylpropan-2-yl)pyridin-2-yl)-N-(1-methyl-1H-indazol-7-yl)-1H-pyrazole-4-sulfonamide]	
1000 to 2500	< 400	CC[C@@](C)(O)c1ccnc(-n2cc(S(=O)(=O)Nc3c(OC)ccc4cnn(C)c34)cn2)c1 [Compound I-316]	
≤ 400	< 400	CC[C@H](OC)c1ccnc(-n2cc(S(=O)(=O)Nc3c(OC)ccc4cnn(C)c34)cn2)c1 [Compound I-317, (S)—N-(6-Methoxy-1-Methyl-1H-Indazol-7-yl)-1-(4-(1-Methoxypropyl)Pyridin-2-yl)-1H-Pyrazole-4-Sulfonamide]	
> 2500	< 400	C[C@@H]1CN(c2ccnc(-n3cc(S(=O)(=O)Nc4cccc5cnn(C)c45)cn3)c2)C(=O)O1 [Compound I-320]	
> 2500	< 400	Cn1ncc2cccc(NS(=O)(=O)c3cnn(-c4cc(N5C(=O)OCC5(C)C)ccn4)c3)c21 [Compound I-321]	
> 2500	< 400	CN1CCN(c2ccnc(-n3cc(S(=O)(=O)Nc4cccc5cnn(C)c45)cn3)c2)C1=O [Compound I-322]	
> 2500	> 2500	CC(=O)N1CC(c2ccnc(-n3cc(S(=O)(=O)Nc4cccc5cnn(C)c45)cn3)c2)C1 [Compound I-326]	
> 2500	< 400	COC[C@@](C)(F)c1ccnc(-n2cc(S(=O)(=O)Nc3cccc4cnn(C)c34)cn2)c1 [Compound I-331, (S)-1-(4-(2-fluoro-1-methoxypropan-2-yl)pyridin-2-yl)-N-(1-methyl-1H-indazol-7-yl)-1H-pyrazole-4-sulfonamide]	
> 2500	< 400	CN1CC(C)(C)N(c2ccnc(-n3cc(S(=O)(=O)Nc4cccc5cnn(C)c45)cn3)c2)C1=O [Compound I-333]	

— patent publication US20240150321A1, “PYRAZOLYLSULFONAMIDE COMPOUNDS AND THEIR USE IN THERAPY” (HOTSPOT THERAPEUTICS, INC., priority 2022, published 2024)
